Measurements from patent publication US12281093B2, “3-(1,2,3,6-tetrahydropyridin-2-YL) pyridine glutarate or a pharmaceutically acceptable solvate thereof” (PHILIP MORRIS PRODUCTS S.A., priority 2018, dated 2025).
Read-outs that look alike come from different tables or passages of the source.

Assays:
[1] = Hygroscopicity of comparative anatabine salts (handling observation); format: physicochemical
Experimental: Anatabine free base (160 mg, 1 mmol) was dissolved in anhydrous acetone (2.5 ml). To the formed solution was added a solution of anhydrous citric acid (192 mg, 1 mmol) in anhydrous acetone (3 ml, required sonication) with stirring under nitrogen. The mixture was stirred for 2 hours and then filtered under a blanket of nitrogen. The solid was washed with a small quantity of anhydrous acetone and dried in vacuo. A yield of 340 mg (96.6%) of anatabine citrate was achieved. […] Chemical structure and stoichiometry was confirmed by proton NMR. The solid form of the citrate contains captured acetone.

[2] = Dynamic vapor sorption (DVS) testing; format: physicochemical; conditions: for mass gain between the starting weight and the end weight: DVS double cycle, final mass vs starting mass
Experimental: Anatabine glutarate (20 mg) was dispensed directly into a pre-weighed sample pan and transferred to the instrument (DVS1 Advantage). Double cycle 0-90-O-90-0% RH method with 10% RH steps was applied.
Dynamic vapor sorption (DVS) was performed on SMS DVS dynamic vapor sorption instrument using DVS control software v1.0.6.0. 30 mg of sample was weighed in stainless steel DVS basket before submitting for analysis. The samples were analyzed over the range of 0-90/RH with a maximum time of 6 hours per humidity stage. Each sample was exposed to a double cycle. Analysis was performed as a weight percent change from 0-90% RH with isothermal plots also being examined. XRPD analysis of all samples was performed post-DVS.
This indicates a gain of moisture.
This was further confirmed by an isotherm plot of this sample.
When comparing X-ray diffraction patterns of the sample before and after DVS a match was observed.

[3] = Stability assessment at accelerated conditions (40° C./75% RH, 7 days): visual, TGA, XRPD; format: physicochemical
Experimental: Anatabine glutarate was analyzed at T=0, and an aliquot subsequently stored in a glass vial with a screw cap lid at accelerated conditions (40° C./75% RH) in an incubator for 7 days prior to further analysis. […] The stored sample was also assessed at T=0 and again post T=7 days using TGA, XRPD and HPLC-UV.
Powder X-ray diffraction (XRPD) was performed on Bruker D8 Advance XRPD using 9 mm cavity and flat plate sample holders. Samples were prepared by coating them onto sample holders fitted with a zero background silicon wafer (5 1 0). Analysis was performed using a Cu Kα X-Ray source which operated at 40 kV at 40 mA and a Lynx Eye TM detector, all samples were analyzed over the range 2-40° 20.
Thermogravimetric Analysis (TGA) was performed on Perkin Elmer PYRIS 1 TGA using 40 μL aluminum pans (vented) in ceramic crucibles. The samples were heated from room temperature to 400° C. at 10° C./min (unless otherwise stated) under a stream of nitrogen gas.

[4] = Ambient stability assessment, open Petri dish, 7 days; format: physicochemical; conditions: ambient conditions, open in a fume hood, T=0, 3 and 7 days
Experimental: For ambient stability assessment, anatabine glutarate (100 mg) was weighed into a clear glass Petri dish and retained at ambient conditions, open in a fume hood for 7 days. The stored sample was visually assessed at T=0, 3 and 7 days. No change in the color or any evidence of deliquescence were observed (FIG. 12).

[5] = Forced degradation trial by HPLC-UV; format: physicochemical; conditions: oxidized sample, 3% hydrogen peroxide added; T=0, 4 and 18 hours; only condition of acid, base, control, heat, oxidation with degradation
Experimental: For evaluation of stability by HPLC-UV, 200 μg/ml sample solution of anatabine and anatabine glutarate were prepared in duplicate by weighing approximately 10 mg and dissolving in 50 ml volumetric flask and bringing to the volume with deionized water. During the HPLC method optimization the run time and gradient have been adjusted for stability analysis. After the method optimization, a forced degradation trial was run to aid the planned stability assessment analysis by identifying any degradants or impurities present in the anatabine glutarate sample. The forced degradation trial analyzed samples under five conditions—acid, base, control, heat and oxidation—and were tested at T=0, 4 and 18 hours.

[6] = system: STAT3 and NFkB signaling; conditions: periphery and CNS, via regulation of STAT3 and NFkB signaling; cited from earlier work
[7] = system: nuclear factor κB (NFKB); conditions: cited from earlier work
[8] = in vivo; cited from earlier work
[9] = stored at 40° C./75% RH for 7 days

anatabine citrate
hygroscopicity [1]: extremely hygroscopic | hygroscopicity ([1]; listed as citrate): highly hygroscopic

C1=CCC(c2cccnc2)NC1 (centres unmarked) [anatabine glutarate, 3-(1,2,3,6-tetrahydropyridin-2-yl)pyridine glutarate]
mass gain on first sorption cycle ([2]; DVS 0-90% RH, first sorption cycle, majority of gain above 70% RH): 55% | mass gain in second sorption cycle ([2]; DVS 0-90% RH): 50% | mass gain in second sorption cycle ([2]; DVS 0-90% RH, listed as Anatabine glutarate): about 50% | mass gain between the starting weight and the end weight [2]: 5% | mass gain between the starting weight and the end weight ([2]; listed as Anatabine glutarate): about 5% | mass loss on first desorption cycle ([2]; DVS first desorption cycle): about 50% | mass above the starting mass after first desorption ([2]; DVS, end of first desorption): 5% | crystal form before and after DVS (XRPD comparison) ([2]; sample left overnight after DVS, recrystallized into a solid form): identical | visual assessment: color or evidence of deliquescence ([3]; 40° C./75% RH, glass vial with screw cap, T=0, 3 and 7 days): no change observed | TGA mass loss between 20-130° C. ([3]; T=7 days sample, 40° C./75% RH): 0.5% | TGA mass loss between 150° C. and 400° C. ([3]; T=7 days sample, 40° C./75% RH): 80% | evidence of degradation ([3]; accelerated conditions (40° C./75% RH) after 7 days): has not shown evidence of degradation | change in thermal stability [3, 9]: no change in thermal stability | change to the crystalline form (XRPD) [3, 9]: no change to the crystalline form | difference in TGA mass loss between T=0 and T=7 days ([3]; superposition of thermograms, 40° C./75% RH): 2% | visual assessment: color or evidence of deliquescence [4]: No change | degradation by peak area (HPLC-UV) [5]: > 1%

C1=CCC(c2cccnc2)NC1 (centres unmarked) [anatabine, 3-[1,2,3,6-Tetrahydropyridin-2-yl]pyridine]
anti-inflammatory activity [6]: has an anti-inflammatory activity | transcription mediated by nuclear factor κB (NFKB) [7]: reduces transcription | reversal of precipitated nicotine withdrawal [8]: does not reverse | rewarding effect in rodents trained to self-administer nicotine [8]: do not find anatabine to be rewarding
